From patent publication US20260200939A1, “MOLECULAR GLUE DEGRADER COMPOUNDS AND USES THEREOF” (Novartis AG, priority 2022, published 2026)

How the values were obtained:
BRD4 long = biological target: T1, BRD4 long (Homo sapiens, UniProt O60885); assay: BRD4 (long) degradation assay, Western blotting; assay type: cell-based
T1 construct: endogenous in cells; host or cells: HEK293T
Procedure: (§1) C33A cells were purchased from American Type Culture Collection (ATCC) and were cultured in Dulbecco's Modified Eagle Medium (DMEM) containing 10% (v/v) fetal bovine serum (FBS) and maintained at 37° C. with 5% CO2. 22RV1 cells were purchased from the ATCC and were cultured in RPMI-1640 Medium containing 10% (v/v) FBS and maintained at 37° C. with 5% CO2. HEK293T cells were obtained from the UC Berkeley Cell Culture Facility and were cultured in DMEM containing 10% (v/v) FBS and maintained at 37° C. with 5% CO2. K562 cells were obtained from the UC Berkeley Cell Culture Facility and were cultured in Iscove's Modified Dulbecco's Medium (IMDM) containing 10% (v/v) FBS and maintained at 37° C. with 5% CO2. MV-4-11 cells were obtained from the ATCC and were cultured in IMDM containing 10% (v/v) FBS and maintained at 37° C. with 5% CO2. A549 cells were obtained from the ATCC and were cultured in F-12K Medium containing 10% (v/v) FBS and maintained at 37° C. with 5% CO2. Mino cells were obtained from the ATCC and were cultured in RPMI-1640 Medium containing 10% (v/v) FBS and maintained at 37° C. with 5% CO2. LNCaP cells were obtained from the ATCC and were cultured in RPMI-1640 Medium containing 10% (v/v) FBS and maintained at 37° C. with 5% CO2. Unless otherwise specified, all cell culture materials were purchased from Gibco. It is not known whether HEK293T cells are from male or female origin.
(§2) Cells were washed twice with cold PBS, scraped, and pelleted by centrifugation (700 g, 5 min, 4° C.). Pellets were resuspended in PBS, sonicated, clarified by centrifugation (12,000 g, 10 min, 4° C.), and lysate was transferred to new low-adhesion microcentrifuge tubes. Proteome concentrations were determined using BCA assay and lysate was diluted to appropriate working concentrations.
(§3) Proteins were resolved by SDS/PAGE and transferred to nitrocellulose membranes using the Trans-Blot Turbo transfer system (Bio-Rad). Membranes were blocked with 5% BSA in Tris-buffered saline containing Tween 20 (TBS-T) solution for 30 min at RT, washed in TBS-T, and probed with primary antibody diluted in recommended diluent per manufacturer overnight at 4° C. After 3 washes with TBS-T, the membranes were incubated in the dark with IR680- or IR800-conjugated secondary antibodies at 1:10,000 dilution in 5% BSA in TBS-T at RT for 1 h. After 3 additional washes with TBST, blots were visualized using an Odyssey Li-Cor fluorescent scanner. The membranes were stripped using ReBlot Plus Strong Antibody Stripping Solution (EMD Millipore) when additional primary antibody incubations were performed. Antibodies used in this study were CDK4 (Abcam ab108357), Vinculin (Abcam ab129002), GAPDH (Cell Signaling Technology 14C10), RNF126 (Santa Cruz Biotechnology sc-376005), BRD4 (Abcam ab128874), Beta Actin (Cell Signaling Technology 13E5), PDE5 (Abcam ab259945), AR-V7 (Abcam ab273500), c-Abl (Santa Cruz Biotechnology sc-23), SMARCA2 (Abcam ab240648), LRRK2 (Abcam ab133474), BTK (Cell Signaling Technology D3H5), Androgen Receptor (Abcam ab133273).

BRD4 short = biological target: T2, BRD4 short (Homo sapiens, UniProt O60885); assay: BRD4 (short) degradation assay, Western blotting; assay type: cell-based
T2 construct: endogenous in cells; host or cells: HEK293T
Procedure: as §1, §2, §3

[1] = first value of cell (long/short)
[2] = second value of cell (long/short)

DC50 (BRD4 long; [1]) [nM]	DC50 (BRD4 short; [2]) [nM]	DC50 (BRD4 long; first value of cell, range with lower bound in nM and upper bound in μM) [nM]	DC50 (BRD4 short; second value of cell, range with lower bound in nM and upper bound in μM) [nM]	Structure (SMILES)
> 1000	> 1000			COc1ccc(C(=O)/C(C)=C/C(=O)N2CCN(C(=O)C[C@@H]3N=C(c4ccc(Cl)cc4)c4c(sc(C)c4C)-n4c(C)nnc43)CC2)cc1 [Compound 139, (S,E)-4-(4-(2-(4-(4-chlorophenyl)-2,3,9-trimethyl-6H-thieno[3,2-f][1,2,4]triazolo[4,3-a][1,4]diazepin-6-yl)acetyl)piperazin-1-yl)-1-(4-methoxyphenyl)-2-methylbut-2-ene-1,4-dione]
> 1000	> 1000			COc1ccc(C(=O)/C=C(\C#N)C(=O)N2CCN(C(=O)C[C@@H]3N=C(c4ccc(Cl)cc4)c4c(sc(C)c4C)-n4c(C)nnc43)CC2)cc1 [Compound 144, (S,E)-2-(4-(2-(4-(4-chlorophenyl)-2,3,9-trimethyl-6H-thieno[3,2-f][1,2,4]triazolo[4,3-a][1,4]diazepin-6-yl)acetyl)piperazine-1-carbonyl)-4-(4-methoxyphenyl)-4-oxobut-2-enenitrile]
10 to 100	10 to 100			Cc1sc2c(c1C)C(c1ccc(Cl)cc1)=N[C@@H](CC(=O)N[C@H]1C[C@H](NC(=O)/C=C/C(=O)c3ccccc3)C1)c1nnc(C)n1-2 [Compound 204, (E)-N-((1S,3r)-3-(2-((S)-4-(4-chlorophenyl)-2,3,9-trimethyl-6H-thieno[3,2-f][1,2,4]triazolo[4,3-a][1,4]diazepin-6-yl)acetamido)cyclobutyl)-4-oxo-4-phenylbut-2-enamide]
10 to 100	10 to 100			COc1ccc(C(=O)/C=C/C(=O)N2CCN(C(=O)C[C@@H]3N=C(c4ccc(Cl)cc4)c4c(sc(C)c4C)-n4c(C)nnc43)CC2)cn1 [Compound 205, (S,E)-1-(4-(2-(4-(4-chlorophenyl)-2,3,9-trimethyl-6H-thieno[3,2-f][1,2,4]triazolo[4,3-a][1,4]diazepin-6-yl)acetyl)piperazin-1-yl)-4-(6-methoxypyridin-3-yl)but-2-ene-1,4-dione]
10 to 100	10 to 100			COc1ccc(C(=O)/C=C/C(=O)N[C@H]2C[C@@H](NC(=O)C[C@@H]3N=C(c4ccc(Cl)cc4)c4c(sc(C)c4C)-n4c(C)nnc43)C2)cn1 [Compound 206, (E)-N-((1R,3s)-3-(2-((S)-4-(4-chlorophenyl)-2,3,9-trimethyl-6H-thieno[3,2-f][1,2,4]triazolo[4,3-a][1,4]diazepin-6-yl)acetamido)cyclobutyl)-4-(6-methoxypyridin-3-yl)-4-oxobut-2-enamide]
10 to 100	10 to 100			COc1ccc(C(=O)/C=C/C(=O)N[C@H]2C[C@H](NC(=O)C[C@@H]3N=C(c4ccc(Cl)cc4)c4c(sc(C)c4C)-n4c(C)nnc43)C2)cn1 [Compound 207, (E)-N-((1S,3r)-3-(2-((S)-4-(4-chlorophenyl)-2,3,9-trimethyl-6H-thieno[3,2-f][1,2,4]triazolo[4,3-a][1,4]diazepin-6-yl)acetamido)cyclobutyl)-4-(6-methoxypyridin-3-yl)-4-oxobut-2-enamide]
< 10	< 10			Cc1sc2c(c1C)C(c1ccc(Cl)cc1)=N[C@@H](CC(=O)N1CCN(C(=O)/C=C/C(=O)c3ccc4c(c3)OCC4)CC1)c1nnc(C)n1-2 [Compound 208, (S,E)-1-(4-(2-(4-(4-chlorophenyl)-2,3,9-trimethyl-6H-thieno[3,2-f][1,2,4]triazolo[4,3-a][1,4]diazepin-6-yl)acetyl)piperazin-1-yl)-4-(2,3-dihydrobenzofuran-6-yl)but-2-ene-1,4-dione]
< 100	< 100			Cc1sc2c(c1C)C(c1ccc(Cl)cc1)=N[C@@H](CC(=O)N1CCN(C(=O)/C=C/C(=O)c3ccc4c(c3)CCO4)CC1)c1nnc(C)n1-2 [Compound 210, (S,E)-1-(4-(2-(4-(4-chlorophenyl)-2,3,9-trimethyl-6H-thieno[3,2-f][1,2,4]triazolo[4,3-a][1,4]diazepin-6-yl)acetyl)piperazin-1-yl)-4-(2,3-dihydrobenzofuran-5-yl)but-2-ene-1,4-dione]
	> 5000			Cc1sc2c(c1C)C(c1ccc(Cl)cc1)=N[C@@H](CC(=O)N[C@H]1C[C@H](NC(=O)/C=C/C(=O)N3CC4(COC4)C3)C1)c1nnc(C)n1-2 [Compound 254, (E)-N-((1S,3r)-3-(2-((S)-4-(4-chlorophenyl)-2,3,9-trimethyl-6H-thieno[3,2-f][1,2,4]triazolo[4,3-a][1,4]diazepin-6-yl)acetamido)cyclobutyl)-4-oxo-4-(2-oxa-6-azaspiro[3.3]heptan-6-yl)but-2-enamide]

The next lines start with the compound.

Structure (SMILES)	DC50 (BRD4 long; [1]) [nM]	DC50 (BRD4 short; [2]) [nM]	DC50 (BRD4 long; first value of cell, range with lower bound in nM and upper bound in μM) [nM]	DC50 (BRD4 short; second value of cell, range with lower bound in nM and upper bound in μM) [nM]
Cc1sc2c(c1C)C(c1ccc(Cl)cc1)=N[C@@H](CC(=O)N1CCN(C(=O)/C=C/C(=O)c3ccccc3)CC1)c1nnc(C)n1-2 [Compound 140, (S,E)-1-(4-(2-(4-(4-chlorophenyl)-2,3,9-trimethyl-6H-thieno[3,2-f][1,2,4]triazolo[4,3-a][1,4]diazepin-6-yl)acetyl)piperazin-1-yl)-4-phenylbut-2-ene-1,4-dione]	< 100	< 100		
COc1ccc(C(=O)/C=C(\C)C(=O)N2CCN(C(=O)C[C@@H]3N=C(c4ccc(Cl)cc4)c4c(sc(C)c4C)-n4c(C)nnc43)CC2)cc1 [Compound 141, (S,E)-1-(4-(2-(4-(4-chlorophenyl)-2,3,9-trimethyl-6H-thieno[3,2-f][1,2,4]triazolo[4,3-a][1,4]diazepin-6-yl)acetyl)piperazin-1-yl)-4-(4-methoxyphenyl)-2-methylbut-2-ene-1,4-dione]	> 1000	> 1000		
COc1ccccc1C(=O)/C=C/C(=O)N1CCN(C(=O)C[C@@H]2N=C(c3ccc(Cl)cc3)c3c(sc(C)c3C)-n3c(C)nnc32)CC1 [Compound 142, (S,E)-1-(4-(2-(4-(4-chlorophenyl)-2,3,9-trimethyl-6H-thieno[3,2-f][1,2,4]triazolo[4,3-a][1,4]diazepin-6-yl)acetyl)piperazin-1-yl)-4-(2-methoxyphenyl)but-2-ene-1,4-dione]	< 100	< 100		
COc1cccc(C(=O)/C=C/C(=O)N2CCN(C(=O)C[C@@H]3N=C(c4ccc(Cl)cc4)c4c(sc(C)c4C)-n4c(C)nnc43)CC2)c1 [Compound 143, (S,E)-1-(4-(2-(4-(4-chlorophenyl)-2,3,9-trimethyl-6H-thieno[3,2-f][1,2,4]triazolo[4,3-a][1,4]diazepin-6-yl)acetyl)piperazin-1-yl)-4-(3-methoxyphenyl)but-2-ene-1,4-dione]	< 100	< 100		
Cc1sc2c(c1C)C(c1ccc(Cl)cc1)=N[C@@H](CC(=O)N1CCN(C(=O)/C=C/C(=O)c3ccc(F)cc3)CC1)c1nnc(C)n1-2 [Compound 202, (S,E)-1-(4-(2-(4-(4-chlorophenyl)-2,3,9-trimethyl-6H-thieno[3,2-f][1,2,4]triazolo[4,3-a][1,4]diazepin-6-yl)acetyl)piperazin-1-yl)-4-(4-fluorophenyl)but-2-ene-1,4-dione]	< 100	< 100		
Cc1sc2c(c1C)C(c1ccc(Cl)cc1)=N[C@@H](CC(=O)N1CCN(C(=O)/C=C/C(=O)c3ccc4c(c3)NC(=O)CO4)CC1)c1nnc(C)n1-2 [Compound 203, (S,E)-1-(4-(2-(4-(4-chlorophenyl)-2,3,9-trimethyl-6H-thieno[3,2-f][1,2,4]triazolo[4,3-a][1,4]diazepin-6-yl)acetyl)piperazin-1-yl)-4-(3-oxo-3,4-dihydro-2H-benzo[b][1,4]oxazin-6-yl)but-2-ene-1,4-dione]	10 to 100	10 to 100		
Cc1sc2c(c1C)C(c1ccc(Cl)cc1)=N[C@@H](CC(=O)N[C@H]1C[C@H](NC(=O)/C=C/C(=O)c3ccc4c(c3)OCC4)C1)c1nnc(C)n1-2 [Compound 209, (E)-N-((1S,3r)-3-(2-((S)-4-(4-chlorophenyl)-2,3,9-trimethyl-6H-thieno[3,2-f][1,2,4]triazolo[4,3-a][1,4]diazepin-6-yl)acetamido)cyclobutyl)-4-(2,3-dihydrobenzofuran-6-yl)-4-oxobut-2-enamide]			100 to 1000	100 to 1000
